Calls of active or inactive are those of the source. The calls are words filed in the database; no cut-off is given here.
Tested on: Mus musculus
Assay: Suppression of lung injury in mouse model of influenza A virus H1N1 infection-induced lung injury assessed as decrease in lung resistance at 30 ug/ml dosed via drinking water
Assay type: functional, organism-based

## c1ccc(-c2ccc(CNCCNCc3ccc(-c4ccccn4)cc3)cc2)nc1
  Activity: Active

From ChEMBL document CHEMBL4419167, “Compositions and methods for treating respiratory injury or disease” (2018)
